This note sets out measurements from publication PMC10630888, “Nuclear ERK1/2 signaling potentiation enhances neuroprotection and cognition via Importinα1/KPNA2” (EMBO Molecular Medicine, 2023).

The assay has as its system cleaved caspase-3. Nature of the assay: Cleaved caspase-3 in striatum of zQ175 females after RB5. In kind it is in vivo, mouse. Particulars: RB5 for 9 days. As to the method:
Immunofluorescence was performed as described in Papale et al ([2016]). Briefly, 1 h after blocking in 5% normal goat serum, slices were incubated overnight at 4°C with the following primary antibodies: anti‐phospho (Ser10)‐acetylated (Lys14) histone H3 (1:1,000, Millipore), anti‐phospho‐S6 ribosomal protein (Ser235/236) (1:200, Cell Signaling Technology) anti‐phospho‐S6 ribosomal protein (Ser240/244) (1:200, Cell Signaling), cleaved caspase‐3 (1:200, Cell Signaling Technology), anti‐mutant Huntingtin (1:100, Developmental Studies Hybridoma Bank, University of Iowa, #MW8), and NeuN (1:1,000, Millipore). […]
In ex‐vivo and in‐vivo immunofluorescence experiments, the number of p‐S6 or p‐AcH3 immunoreactive neurons among NeuN‐positive neurons was counted in 2–3 consecutive striatal sections per mouse in four fields per section. Caspase 3‐positive cells were quantified among NeuN‐positive neurons in each slide and expressed as percentage (ratio between caspase‐3‐positive cells and total NeuN‐positive neurons) for each field acquired through the slide. The number of cells showing mutant Huntingtin inclusions were expressed as a percentage of mutant Huntingtin‐positive cells among DAPI‐positive cells. […]

Consider “GRKKRRQRRRPPQGGGGGEPRRTEGVGPGVPGEVEMVKGQPFDV [RB5, six D-amino acids, acetylated N-terminus]”, for which the “Preapoptotic marker caspase-3 in striatum” value was “very significant reduction”.
